Data from patent US20250339443A1, “METHOD FOR TREATING OR PREVENTING CALCIUM RELEASE-ACTIVATED CALCIUM CHANNEL OR DISCOIDIN DOMAIN RECEPTOR 2 RELATED DISORDERS OR CONDITIONS” (LumiSTAR Biotechnology, Inc., priority 2023, published 2025).

Columns and labels:
CRAC channel [1] = target: T1, CRAC channel (Rattus norvegicus, UniProt Q5M848); test: CRAC channel activity / SOCE in HSC-T6; format: cell-based; settings: HSC-T6, 10 μM pretreatment 45 min
T1 construct: endogenous in cells; host or cells: HSC-T6
Method: (§1) Cells were co-treated with various compounds (10 μM) and TGF-β1 for 24 hours. Following this, cell lysates were harvested, and the protein expression was assessed by Western blot analysis. FIG. 3D depicts the examination of TGF-β1-induced fibronectin deposition and α-SMA expression in HCF treated with 10 μM of DMSO, BTP2, WRG-28, or Av through immunofluorescence staining. The images were captured using a confocal microscope, the Olympus FV-1000. FIG. 3E, FIG. 3F, and FIG. 3G illustrate the assessment of CRAC channel activity in HCF, MRC5, and rat HSC-T6. These cells were pretreated with 10 μM of BTP2, WRG-28, or Av for 45 min. The evaluation included measuring the second peak of each calcium wave and the rate of entry. Each bar within the figure represents the mean value derived from 77 to 91 cells for HCF, 31 to 49 cells for MRC5, and 43 to 94 cells for HSC-T6. In all the graphs, *, **, and *** denote p-values of <0.05, 0.01, and 0.001, respectively.
(§2) Cells cultured on a glass-bottom 96 well plate for 48 hours were treated with different compounds (10 μM) and Fura 2-AM (1 μM) simultaneously in a solution containing 145 mM NaCl, 2.8 mM KCl, 2 mM CaCl2, 2 mM MgCl2, 10 mM D-glucose, 10 mM HEPES, pH 7.4 for 40 minutes in the dark. […] All the images were analyzed by using IGOR Pro software. […]

[2] = tested on: obstruction-induced persistent progression of renal fibrosis; test: Kidney transcriptome (RNA sequencing, ingenuity pathway analysis) in RUUO mice; format: in vivo, mouse; settings: treated after the obstruction was released (7/15*d)
Description: FIG. 10A and FIG. 10B display how WRG-28 and Av treatments effectively reduce RUUO-induced overwhelming fibrosis and inflammation. In FIG. 10A, total ribonucleic acid (RNA) extracts from control mice (sham) and mice treated with DMSO, WRG-28, or Av after the obstruction was released (7/15*d) underwent ingenuity pathway analysis (IPA). Both FIG. 10A and FIG. 10B illustrate large-scale transcriptome analysis, further affirming the potent effects of WRG-28 and Av in preventing and protecting kidneys from progressive fibrosis.
Total RNA was extracted from kidneys by homogenizing the samples in TRIzol reagent (Invitrogen). Chloroform was added and the homogenate separates into three layers, the upper clear aqueous containing RNA was transferred into a new tube, and RNA was precipitated by adding isopropanol. The pellets were washed with 70% ethanol and then dissolved in RNase-free water. The RNA passes the quality control, including RNA integrity number (RIN) >7, OD260/OD280 ˜1.8, etc., were sent for sequencing. Transcriptomes were analyzed by ingenuity pathway analysis (IPA).
Total ribonucleic acid (RNA) was extracted from […]: control mice (sham) and mice that received treatments with DMSO, WRG-28, or Av after the obstruction was released (7/15*d). Transcriptomes were then analyzed by ingenuity pathway analysis (IPA). […]

CRAC channel [3] = target: T2, CRAC channel (Homo sapiens, UniProt Q96D31); test: CRAC channel activity / SOCE in HCF; format: cell-based; design: endogenous in cells; settings: 10 μM pretreatment 45 min
Method: as §1, §2

CRAC channel [4] = target: T2, CRAC channel; test: SOCE in macrophages; format: cell-based; design: endogenous in cells; host or cells: HEK293T; settings: 10 μM
Method: The effects of BTP2, WRG-28, Av, and CM-4620 on SOCE were evaluated in T cells (FIG. 4A) and macrophages (FIG. 4E). Cells were cultured on glass-bottom 96-well plates and pretreated with various compounds (10 μM) while being loaded with Fura 2-AM. Subsequently, the cytosolic calcium signal waves were recorded, and the second peak of each wave and rate of entry were assessed. Each bar represents the mean value derived from, 43 to 111 cells for T cells (FIG. 4A), and 52 to 91 cells for macrophages (FIG. 4E). Cytokine induction in T cells and macrophages was conducted as described in the methods section. The levels of cytokines, including IL-2, TNF-α, and IL-6 in the culture medium were assessed using ELISA kits for T cells (FIG. 4B, FIG. 4C, and FIG. 4D) and macrophages (FIG. 4F, FIG. 4G, and FIG. 4H), respectively. Each bar represents the mean±SEM. In all the graphs, *, **, and *** denote p-values of <0.05, 0.01, and 0.001, respectively. […]
as §2

T2 sequence (Q96D31 whole entry): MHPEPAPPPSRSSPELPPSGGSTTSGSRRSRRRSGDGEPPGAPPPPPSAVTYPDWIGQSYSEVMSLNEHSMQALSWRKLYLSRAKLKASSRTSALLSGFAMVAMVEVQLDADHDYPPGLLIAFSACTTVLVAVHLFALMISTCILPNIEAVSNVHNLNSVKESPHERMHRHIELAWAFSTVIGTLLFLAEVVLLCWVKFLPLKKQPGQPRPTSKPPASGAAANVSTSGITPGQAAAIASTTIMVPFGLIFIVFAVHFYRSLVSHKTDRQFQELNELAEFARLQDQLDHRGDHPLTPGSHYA
T1 sequence (Q5M848 whole entry): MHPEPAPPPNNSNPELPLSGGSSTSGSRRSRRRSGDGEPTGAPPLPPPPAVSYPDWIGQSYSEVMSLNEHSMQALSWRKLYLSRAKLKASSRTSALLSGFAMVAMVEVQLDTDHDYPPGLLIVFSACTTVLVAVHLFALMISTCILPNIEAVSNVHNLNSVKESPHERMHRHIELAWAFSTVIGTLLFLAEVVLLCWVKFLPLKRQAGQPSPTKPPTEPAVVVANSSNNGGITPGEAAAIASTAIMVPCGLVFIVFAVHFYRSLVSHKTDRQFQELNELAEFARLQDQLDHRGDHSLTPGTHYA

SOCE (CRAC channel [1]): notably reduced
SOCE (CRAC channel [3]): notably reduced
SOCE in macrophages (CRAC channel [4]): higher efficacy compared to Av
Structure (SMILES): CCNS(=O)(=O)c1ccc(COc2ccc3nc4ccc(=O)cc-4oc3c2)cc1 [WRG-28]
inflammatory responses and fibrotic signaling pathways (transcriptome, IPA) [2]: reduced
